Species: Rattus norvegicus
Experiment: Open TG-GATES - Regimen: Single
Type: toxicity, organism-based, Sprague-Dawley
Design: regimen Single, gender Male, age 6 weeks
Conditions: in vivo, po, route gavage; for Bas / Eos / Fbg / Hb / Ht / Lym / MCH / MCHC / MCV / Mono / Neu / PT / Plat / RBC / Ret / WBC: tissue Blood; for KIDNEY_L / KIDNEY_R / KIDNEY_TOTAL: tissue Kidney; for LIVER: tissue Liver; for ALP / ALT / AST / BUN / CRE / Ca / Cl / DBIL / GLC / IP / K / LDH / Na / PL / RALB / TBIL / TC / TG / TP / gamma-GTP: tissue Plasma
[1] = 0 mg/kg, 3 h, dose level Control
[2] = 0 mg/kg, 6 h, dose level Control
[3] = 0 mg/kg, 9 h, dose level Control
[4] = 0 mg/kg, 24 h, dose level Control

CN(C)CCCN1c2ccccc2Sc2ccc(Cl)cc21 [CHLORPROMAZINE]
TERMINAL_BW [1]: 223.8 g | Bas [1]: 0% | Eos [1]: 1.2% | Fbg [1]: 223.6 mg/dL | Hb [1]: 13.7 g/dL | Ht [1]: 39.3% | Lym [1]: 76% | MCH [1]: 21.8 pg | MCHC [1]: 34.7% | MCV [1]: 62.7 fL | Mono [1]: 2.6% | Neu [1]: 18.8% | PT [1]: 12.5 s | Plat [1]: 116.1 x10_4/uL | RBC [1]: 627.6 x10_4/ul | Ret [1]: 7.6% | WBC [1]: 91.8 x10_2/uL | KIDNEY_L [1]: 1 g | KIDNEY_R [1]: 1 g | KIDNEY_TOTAL [1]: 2 g | LIVER [1]: 10 g | ALP [1]: 1021.8 IU/L | ALT [1]: 37.6 IU/L | AST [1]: 78.8 IU/L | BUN [1]: 12.2 mg/dL | CRE [1]: 0.4 mg/dL | Ca [1]: 10.8 mg/dL | Cl [1]: 103.2 meq/L | DBIL [1]: 0.064 mg/dL | GLC [1]: 190 mg/dL | IP [1]: 8.5 mg/dL | K [1]: 4 meq/L | LDH [1]: 227.2 IU/L | Na [1]: 141.6 meq/L | PL [1]: 131.8 mg/dL | RALB [1]: 3.5 g/dL | TBIL [1]: 0.1 mg/dL | TC [1]: 67.6 mg/dL | TG [1]: 62.6 mg/dL | TP [1]: 5.5 g/dL | gamma-GTP [1]: 1 IU/L | TERMINAL_BW [2]: 217.9 g | Bas [2]: 0% | Eos [2]: 1% | Fbg [2]: 227.4 mg/dL | Hb [2]: 13.4 g/dL | Ht [2]: 38.8% | Lym [2]: 77.2% | MCH [2]: 21.1 pg | MCHC [2]: 34.5% | MCV [2]: 61.2 fL | Mono [2]: 2.8% | Neu [2]: 17.4% | PT [2]: 12.5 s | Plat [2]: 113.2 x10_4/uL | RBC [2]: 634 x10_4/ul | Ret [2]: 7.6% | WBC [2]: 104.6 x10_2/uL | KIDNEY_L [2]: 1 g | KIDNEY_R [2]: 1 g | KIDNEY_TOTAL [2]: 1.9 g | LIVER [2]: 9.2 g | ALP [2]: 816 IU/L | ALT [2]: 33.6 IU/L | AST [2]: 79.8 IU/L | BUN [2]: 9 mg/dL | CRE [2]: 0.4 mg/dL | Ca [2]: 10.7 mg/dL | Cl [2]: 103.4 meq/L | DBIL [2]: 0.066 mg/dL | GLC [2]: 190 mg/dL | IP [2]: 9.4 mg/dL | K [2]: 3.9 meq/L | LDH [2]: 221.2 IU/L | Na [2]: 141.8 meq/L | PL [2]: 133.6 mg/dL | RALB [2]: 3.4 g/dL | TBIL [2]: 0.1 mg/dL | TC [2]: 75.8 mg/dL | TG [2]: 56.2 mg/dL | TP [2]: 5.4 g/dL | gamma-GTP [2]: 0.8 IU/L | TERMINAL_BW [3]: 219.8 g | Bas [3]: 0.4% | Eos [3]: 0.6% | Fbg [3]: 227 mg/dL | Hb [3]: 13.2 g/dL | Ht [3]: 38.2% | Lym [3]: 78.8% | MCH [3]: 21.7 pg | MCHC [3]: 34.5% | MCV [3]: 63 fL | Mono [3]: 2.6% | Neu [3]: 16.6% | PT [3]: 12.6 s | Plat [3]: 122.8 x10_4/uL | RBC [3]: 606.2 x10_4/ul | Ret [3]: 8.3% | WBC [3]: 82.3 x10_2/uL | KIDNEY_L [3]: 1 g | KIDNEY_R [3]: 1 g | KIDNEY_TOTAL [3]: 2 g | LIVER [3]: 9 g | ALP [3]: 922.2 IU/L | ALT [3]: 30.6 IU/L | AST [3]: 68 IU/L | BUN [3]: 11.4 mg/dL | CRE [3]: 0.4 mg/dL | Ca [3]: 10.7 mg/dL | Cl [3]: 104 meq/L | DBIL [3]: 0.066 mg/dL | GLC [3]: 203.4 mg/dL | IP [3]: 10.2 mg/dL | K [3]: 3.8 meq/L | LDH [3]: 180.2 IU/L | Na [3]: 141.8 meq/L | PL [3]: 132.6 mg/dL | RALB [3]: 3.3 g/dL | TBIL [3]: 0.1 mg/dL | TC [3]: 69.8 mg/dL | TG [3]: 59.2 mg/dL | TP [3]: 5.4 g/dL | gamma-GTP [3]: 1 IU/L | TERMINAL_BW [4]: 233.7 g | Bas [4]: 0.8% | Eos [4]: 1.2% | Fbg [4]: 230.4 mg/dL | Hb [4]: 13 g/dL | Ht [4]: 38.5% | Lym [4]: 79% | MCH [4]: 21.2 pg | MCHC [4]: 33.8% | MCV [4]: 62.8 fL | Mono [4]: 3% | Neu [4]: 15.8% | PT [4]: 11.7 s | Plat [4]: 133.9 x10_4/uL | RBC [4]: 613.8 x10_4/ul | Ret [4]: 7.4% | WBC [4]: 115.9 x10_2/uL | KIDNEY_L [4]: 1 g | KIDNEY_R [4]: 1 g | KIDNEY_TOTAL [4]: 2 g | LIVER [4]: 10.7 g | ALP [4]: 1074.4 IU/L | ALT [4]: 34.8 IU/L | AST [4]: 73.8 IU/L | BUN [4]: 16 mg/dL | CRE [4]: 0.5 mg/dL | Ca [4]: 10.8 mg/dL | Cl [4]: 103.8 meq/L | DBIL [4]: 0.058 mg/dL | GLC [4]: 203 mg/dL | IP [4]: 7 mg/dL | K [4]: 4 meq/L | LDH [4]: 192.2 IU/L | Na [4]: 141.2 meq/L | PL [4]: 140 mg/dL | RALB [4]: 3.4 g/dL | TBIL [4]: 0.1 mg/dL | TC [4]: 78.6 mg/dL | TG [4]: 80.2 mg/dL | TP [4]: 5.6 g/dL | gamma-GTP [4]: 1 IU/L | TERMINAL_BW (45 mg/kg, 3 h, dose level Low): 220 g | Bas (45 mg/kg, 3 h, dose level Low): 0% | Eos (45 mg/kg, 3 h, dose level Low): 1% | Fbg (45 mg/kg, 3 h, dose level Low): 221.8 mg/dL | Hb (45 mg/kg, 3 h, dose level Low): 12.5 g/dL | Ht (45 mg/kg, 3 h, dose level Low): 36.7% | Lym (45 mg/kg, 3 h, dose level Low): 79.4% | MCH (45 mg/kg, 3 h, dose level Low): 21 pg | MCHC (45 mg/kg, 3 h, dose level Low): 33.9% | MCV (45 mg/kg, 3 h, dose level Low): 61.9 fL | Mono (45 mg/kg, 3 h, dose level Low): 2.2% | Neu (45 mg/kg, 3 h, dose level Low): 17% | PT (45 mg/kg, 3 h, dose level Low): 12.1 s | Plat (45 mg/kg, 3 h, dose level Low): 127.9 x10_4/uL | RBC (45 mg/kg, 3 h, dose level Low): 594 x10_4/ul | Ret (45 mg/kg, 3 h, dose level Low): 7.8% | WBC (45 mg/kg, 3 h, dose level Low): 55.8 x10_2/uL | KIDNEY_L (45 mg/kg, 3 h, dose level Low): 0.9 g | KIDNEY_R (45 mg/kg, 3 h, dose level Low): 0.9 g | KIDNEY_TOTAL (45 mg/kg, 3 h, dose level Low): 1.8 g | LIVER (45 mg/kg, 3 h, dose level Low): 10.3 g | ALP (45 mg/kg, 3 h, dose level Low): 910.4 IU/L | ALT (45 mg/kg, 3 h, dose level Low): 31.6 IU/L | AST (45 mg/kg, 3 h, dose level Low): 66.4 IU/L | BUN (45 mg/kg, 3 h, dose level Low): 10.2 mg/dL | CRE (45 mg/kg, 3 h, dose level Low): 0.4 mg/dL | Ca (45 mg/kg, 3 h, dose level Low): 10.9 mg/dL | Cl (45 mg/kg, 3 h, dose level Low): 105.6 meq/L | DBIL (45 mg/kg, 3 h, dose level Low): 0.066 mg/dL | GLC (45 mg/kg, 3 h, dose level Low): 244.4 mg/dL | IP (45 mg/kg, 3 h, dose level Low): 10.2 mg/dL | K (45 mg/kg, 3 h, dose level Low): 3.8 meq/L | LDH (45 mg/kg, 3 h, dose level Low): 210 IU/L | Na (45 mg/kg, 3 h, dose level Low): 144.8 meq/L | PL (45 mg/kg, 3 h, dose level Low): 151 mg/dL | RALB (45 mg/kg, 3 h, dose level Low): 3.5 g/dL | TBIL (45 mg/kg, 3 h, dose level Low): 0.1 mg/dL | TC (45 mg/kg, 3 h, dose level Low): 77.8 mg/dL | TG (45 mg/kg, 3 h, dose level Low): 77 mg/dL | TP (45 mg/kg, 3 h, dose level Low): 5.4 g/dL | gamma-GTP (45 mg/kg, 3 h, dose level Low): 1 IU/L | TERMINAL_BW (45 mg/kg, 6 h, dose level Low): 214.5 g | Bas (45 mg/kg, 6 h, dose level Low): 0.2% | Eos (45 mg/kg, 6 h, dose level Low): 1% | Fbg (45 mg/kg, 6 h, dose level Low): 221.8 mg/dL | Hb (45 mg/kg, 6 h, dose level Low): 12.5 g/dL | Ht (45 mg/kg, 6 h, dose level Low): 36.9% | Lym (45 mg/kg, 6 h, dose level Low): 69.4% | MCH (45 mg/kg, 6 h, dose level Low): 21 pg | MCHC (45 mg/kg, 6 h, dose level Low): 34% | MCV (45 mg/kg, 6 h, dose level Low): 62 fL | Mono (45 mg/kg, 6 h, dose level Low): 2.2% | Neu (45 mg/kg, 6 h, dose level Low): 26% | PT (45 mg/kg, 6 h, dose level Low): 12 s | Plat (45 mg/kg, 6 h, dose level Low): 129.9 x10_4/uL | RBC (45 mg/kg, 6 h, dose level Low): 596.2 x10_4/ul | Ret (45 mg/kg, 6 h, dose level Low): 8.2% | WBC (45 mg/kg, 6 h, dose level Low): 48 x10_2/uL | KIDNEY_L (45 mg/kg, 6 h, dose level Low): 1 g | KIDNEY_R (45 mg/kg, 6 h, dose level Low): 0.9 g | KIDNEY_TOTAL (45 mg/kg, 6 h, dose level Low): 1.9 g | LIVER (45 mg/kg, 6 h, dose level Low): 9.4 g | ALP (45 mg/kg, 6 h, dose level Low): 861 IU/L | ALT (45 mg/kg, 6 h, dose level Low): 29.6 IU/L | AST (45 mg/kg, 6 h, dose level Low): 68.4 IU/L | BUN (45 mg/kg, 6 h, dose level Low): 8.6 mg/dL | CRE (45 mg/kg, 6 h, dose level Low): 0.4 mg/dL | Ca (45 mg/kg, 6 h, dose level Low): 10.5 mg/dL | Cl (45 mg/kg, 6 h, dose level Low): 106.4 meq/L | DBIL (45 mg/kg, 6 h, dose level Low): 0.07 mg/dL | GLC (45 mg/kg, 6 h, dose level Low): 249.6 mg/dL | IP (45 mg/kg, 6 h, dose level Low): 10.8 mg/dL | K (45 mg/kg, 6 h, dose level Low): 3.6 meq/L | LDH (45 mg/kg, 6 h, dose level Low): 219.6 IU/L | Na (45 mg/kg, 6 h, dose level Low): 144.8 meq/L | PL (45 mg/kg, 6 h, dose level Low): 138.2 mg/dL | RALB (45 mg/kg, 6 h, dose level Low): 3.4 g/dL | TBIL (45 mg/kg, 6 h, dose level Low): 0.1 mg/dL | TC (45 mg/kg, 6 h, dose level Low): 79.2 mg/dL | TG (45 mg/kg, 6 h, dose level Low): 19.2 mg/dL | TP (45 mg/kg, 6 h, dose level Low): 5.4 g/dL | gamma-GTP (45 mg/kg, 6 h, dose level Low): 1 IU/L
